ChEMBL document CHEMBL5370665, “Insight from Linker Investigations: Discovery of a Novel Phenylbenzothiazole Necroptosis Inhibitor Targeting Receptor-Interacting Protein Kinase 1 (RIPK1) from a Phenoxybenzothiazole Compound with Dual RIPK1/3 Targeting Activity” (J Med Chem, 2023)
Activity calls are given as the source filed them. The rule behind the calls is not given here.

What was measured:
[1] = system: HT-29; experiment: Anti-necroptic activity against human HT-29 cells assessed as inhibition of TSZ (TNFalpha, Smac mimetic and z-VAD-FMK) induced necroptosis pretreated with compound followed by TSZ stimulation for 16 to 18 hrs by CellTiter-Glo Luminescent cell viability assay; type: functional, cell-based
[2] = Cytotoxicity against human HT-29 cells assessed as reduction in cell viability incubated for 16 to 24 hrs by CellTiter-Glo Luminescent cell viability assay; type: toxicity, cell-based; details: time 16-24 hrs
[3] = target: T1, Receptor-interacting serine/threonine-protein kinase 1 (Homo sapiens, UniProt Q13546); experiment: Binding affinity to recombinant RIPK1 (unknown origin) assessed as dissociation constant incubated for 1 hr by KINOMEscanTM assay
T1 sequence (Q13546 whole entry): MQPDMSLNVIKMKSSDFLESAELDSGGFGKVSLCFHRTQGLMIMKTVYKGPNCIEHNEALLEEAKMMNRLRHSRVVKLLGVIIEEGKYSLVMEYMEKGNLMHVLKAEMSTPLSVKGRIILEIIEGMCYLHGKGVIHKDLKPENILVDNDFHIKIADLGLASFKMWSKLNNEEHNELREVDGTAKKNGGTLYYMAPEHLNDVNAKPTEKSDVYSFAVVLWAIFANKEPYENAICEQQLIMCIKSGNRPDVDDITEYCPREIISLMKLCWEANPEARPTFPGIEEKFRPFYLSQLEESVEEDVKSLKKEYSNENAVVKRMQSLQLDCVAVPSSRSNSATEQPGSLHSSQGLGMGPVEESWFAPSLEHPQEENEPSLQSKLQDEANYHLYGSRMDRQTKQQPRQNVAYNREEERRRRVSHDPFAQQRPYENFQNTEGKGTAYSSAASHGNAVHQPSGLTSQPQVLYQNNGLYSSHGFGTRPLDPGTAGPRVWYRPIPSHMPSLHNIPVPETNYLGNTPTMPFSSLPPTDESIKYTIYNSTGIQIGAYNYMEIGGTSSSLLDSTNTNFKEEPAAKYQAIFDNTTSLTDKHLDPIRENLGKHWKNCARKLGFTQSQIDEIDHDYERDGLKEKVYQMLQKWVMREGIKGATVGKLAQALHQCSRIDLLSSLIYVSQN

[4] = target: Receptor-interacting serine/threonine-protein kinase 3 (Homo sapiens, UniProt Q9Y572); experiment: Binding affinity to recombinant RIPK3 (unknown origin) assessed as dissociation constant incubated for 1 hr by KINOMEscanTM assay
Receptor-interacting serine/threonine-protein kinase 3, sequence (Q9Y572 whole entry): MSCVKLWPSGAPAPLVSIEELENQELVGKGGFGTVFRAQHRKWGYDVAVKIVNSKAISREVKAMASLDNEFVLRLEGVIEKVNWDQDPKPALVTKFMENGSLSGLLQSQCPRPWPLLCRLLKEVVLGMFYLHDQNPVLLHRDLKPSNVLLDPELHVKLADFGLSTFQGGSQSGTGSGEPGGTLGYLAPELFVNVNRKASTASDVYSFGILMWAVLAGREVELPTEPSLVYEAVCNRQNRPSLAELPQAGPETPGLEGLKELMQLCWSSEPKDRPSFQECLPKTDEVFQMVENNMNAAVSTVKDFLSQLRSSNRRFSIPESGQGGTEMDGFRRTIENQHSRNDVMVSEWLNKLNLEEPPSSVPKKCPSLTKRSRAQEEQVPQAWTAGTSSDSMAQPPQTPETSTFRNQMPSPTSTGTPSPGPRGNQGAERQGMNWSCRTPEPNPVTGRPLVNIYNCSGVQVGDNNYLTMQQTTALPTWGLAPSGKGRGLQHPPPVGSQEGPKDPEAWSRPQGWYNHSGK

[5] = system: Mus musculus; experiment: Anti-inflammatory activity against C57BL/6J mouse model of TNFalpha-induced systemic inflammatory response syndrome (SIRS) assessed as decrease in IL-1beta level in lung at 5 mg/kg,po 2 hrs prior to mTNFalpha and z-VAD-FMK stimulation for 8 hrs by ELISA; type: functional, organism-based; details: time 10.0 hrs
[6] = system: Mus musculus; experiment: Anti-inflammatory activity against C57BL/6J mouse model of TNFalpha-induced systemic inflammatory response syndrome (SIRS) assessed as increase in body temperature at 5 mg/kg,po 2 hrs prior to mTNFalpha and z-VAD-FMK stimulation and measured upto 18 hrs by electric thermometer analysis; type: functional, organism-based; details: time 20.0 hrs
[7] = system: Mus musculus; experiment: Anti-inflammatory activity against C57BL/6J mouse model of TNFalpha-induced systemic inflammatory response syndrome (SIRS) assessed as decrease in IL-6 level in spleen at 5 mg/kg,po 2 hrs prior to mTNFalpha and z-VAD-FMK stimulation for 8 hrs by ELISA; type: functional, organism-based; details: time 10.0 hrs
[8] = system: Mus musculus; experiment: Anti-inflammatory activity against C57BL/6J mouse model of TNFalpha-induced systemic inflammatory response syndrome (SIRS) assessed as decrease in IL-1beta level in brain at 5 mg/kg,po 2 hrs prior to mTNFalpha and z-VAD-FMK stimulation for 8 hrs by ELISA; type: functional, organism-based; details: time 10.0 hrs
[9] = system: Mus musculus; experiment: Anti-inflammatory activity against C57BL/6J mouse model of TNFalpha-induced systemic inflammatory response syndrome (SIRS) assessed as decrease in IL-1beta level in spleen at 5 mg/kg,po 2 hrs prior to mTNFalpha and z-VAD-FMK stimulation for 8 hrs by ELISA; type: functional, organism-based; details: time 10.0 hrs
[10] = system: Mus musculus; experiment: Anti-inflammatory activity against C57BL/6J mouse model of TNFalpha-induced systemic inflammatory response syndrome (SIRS) assessed as decrease in IL-6 level in intestine at 5 mg/kg,po 2 hrs prior to mTNFalpha and z-VAD-FMK stimulation for 8 hrs by ELISA; type: functional, organism-based; details: time 10.0 hrs
[11] = system: Mus musculus; experiment: Anti-inflammatory activity against C57BL/6J mouse model of TNFalpha-induced systemic inflammatory response syndrome (SIRS) assessed as decrease in IL-6 level in lung at 5 mg/kg,po 2 hrs prior to mTNFalpha and z-VAD-FMK stimulation for 8 hrs by ELISA; type: functional, organism-based; details: time 10.0 hrs
[12] = system: Mus musculus; experiment: Anti-inflammatory activity against C57BL/6J mouse model of TNFalpha-induced systemic inflammatory response syndrome (SIRS) assessed as decrease in IL-1beta level in liver at 5 mg/kg,po 2 hrs prior to mTNFalpha and z-VAD-FMK stimulation for 8 hrs by ELISA; type: functional, organism-based; details: time 10.0 hrs
[13] = system: Mus musculus; experiment: Anti-inflammatory activity against C57BL/6J mouse model of TNFalpha-induced systemic inflammatory response syndrome (SIRS) assessed as decrease in IL-1beta level in kidney at 5 mg/kg,po 2 hrs prior to mTNFalpha and z-VAD-FMK stimulation for 8 hrs by ELISA; type: functional, organism-based; details: time 10.0 hrs
[14] = system: Mus musculus; experiment: Anti-inflammatory activity against C57BL/6J mouse model of TNFalpha-induced systemic inflammatory response syndrome (SIRS) assessed as decrease in IL-1beta level in intestine at 5 mg/kg,po 2 hrs prior to mTNFalpha and z-VAD-FMK stimulation for 8 hrs by ELISA; type: functional, organism-based; details: time 10.0 hrs
[15] = system: HT-29; experiment: Anti-apoptotic activity against human HT-29 cells assessed as inhibition of TC (human TNFalpha, cycloheximide) induced apoptosis upto 20 uM pretreated with compound followed by TC stimulation for 36 hrs by CellTiter-Glo Luminescent cell viability assay; type: functional, cell-based
[16] = system: Mus musculus; experiment: Anti-inflammatory activity against C57BL/6J mouse model of TNFalpha-induced systemic inflammatory response syndrome (SIRS) assessed as increase in survival rate at 5 mg/kg,po 2 hrs prior to mTNFalpha and z-VAD-FMK stimulation and measured upto 24 hrs; type: functional; details: time 26 hrs
[17] = system: Mus musculus; experiment: Anti-inflammatory activity against C57BL/6J mouse model of TNFalpha-induced systemic inflammatory response syndrome (SIRS) assessed as decrease in IL-6 level in liver at 5 mg/kg,po 2 hrs prior to mTNFalpha and z-VAD-FMK stimulation for 8 hrs by ELISA; type: functional, organism-based; details: time 10.0 hrs
[18] = system: Mus musculus; experiment: Anti-inflammatory activity against C57BL/6J mouse model of TNFalpha-induced systemic inflammatory response syndrome (SIRS) assessed as decrease in IL-1beta level in heart at 5 mg/kg,po 2 hrs prior to mTNFalpha and z-VAD-FMK stimulation for 8 hrs by ELISA; type: functional, organism-based; details: time 10.0 hrs
[19] = system: Mus musculus; experiment: Anti-inflammatory activity against C57BL/6J mouse model of TNFalpha-induced systemic inflammatory response syndrome (SIRS) assessed as decrease in IL-6 level in kidney at 5 mg/kg,po 2 hrs prior to mTNFalpha and z-VAD-FMK stimulation for 8 hrs by ELISA; type: functional, organism-based; details: time 10.0 hrs
[20] = system: Mus musculus; experiment: Anti-inflammatory activity against C57BL/6J mouse model of TNFalpha-induced systemic inflammatory response syndrome (SIRS) assessed as decrease in IL-6 level in heart at 5 mg/kg,po 2 hrs prior to mTNFalpha and z-VAD-FMK stimulation for 8 hrs by ELISA; type: functional, organism-based; details: time 10.0 hrs
[21] = system: Mus musculus; experiment: Anti-inflammatory activity against C57BL/6J mouse model of TNFalpha-induced systemic inflammatory response syndrome (SIRS) assessed as decrease in IL-6 level in brain at 5 mg/kg,po 2 hrs prior to mTNFalpha and z-VAD-FMK stimulation for 8 hrs by ELISA; type: functional, organism-based; details: time 10.0 hrs
[22] = system: HT-29; experiment: Anti-necroptic activity in TSZ (TNFalpha, Smac mimetic and z-VAD-FMK) induced necroptosis in human HT-29 cells assessed as increase in cell viability preincubated for 30 mins pretreated followed by TSZ stimulation and measured after 16 hrs by MTT assay; type: functional, cell-based

| SMILES | EC50 [1] [µM] | CC50 [2] [µM] | other results |
| --- | --- | --- | --- |
| O=C(Cc1cccc(OC(F)(F)F)c1)Nc1cc(C(=O)Nc2ccc3nc(NC(=O)C4CC4)sc3c2)ccc1F | 1.26 | > 10 | – |
| O=C(Cc1cccc(OC(F)(F)F)c1)Nc1cc(C#Cc2ccc3nc(NC(=O)C4CC4)sc3c2)ccc1F | 0.2 | > 10 | – |
| CN(c1ccc(F)c(NC(=O)Cc2cccc(OC(F)(F)F)c2)c1)c1ccc2nc(NC(=O)C3CC3)sc2c1 | 0.75 | > 10 | – |
| O=C(Cc1cccc(OC(F)(F)F)c1)Nc1ccc(-c2ccc3nc(NC(=O)C4CC4)sc3c2)cc1F | > 20 | > 10 | – |
| O=C(Cc1cccc(OC(F)(F)F)c1)Nc1cccc(-c2ccc3nc(NC(=O)C4CC4)sc3c2)c1F | 0.34 | > 10 | Kd [3]: 0.14 µM; Kd [4]: > 5 µM |
| O=C(Cc1cccc(OC(F)(F)F)c1)Nc1cc(S(=O)(=O)c2ccc3nc(NC(=O)C4CC4)sc3c2)ccc1F | > 20 | > 10 | – |
| O=C(Cc1cccc(OC(F)(F)F)c1)Nc1cc(Oc2ccc3nc(NC(=O)C4CC4)sc3c2)ccc1F | – | – | Activity [5]: inactive; Activity [6]: inactive; Activity [7]: inactive; Activity [8]: inactive; Activity [9]: inactive; Activity [10]: inactive; Activity [11]: inactive; Activity [12]: inactive; Activity [13]: inactive; Activity [14]: inactive; Activity [15]: Active; survival at 5 mg/kg [16]: 40%; Activity [17]: inactive; Activity [18]: inactive; Activity [19]: inactive; Activity [20]: inactive; Activity [21]: inactive |
| O=C(Cc1cccc(OC(F)(F)F)c1)Nc1cc(C(O)c2ccc3nc(NC(=O)C4CC4)sc3c2)ccc1F (stereo not given) | 0.71 | > 10 | – |
| O=C(Cc1cccc(OC(F)(F)F)c1)Nc1cc(C(=O)c2ccc3nc(NC(=O)C4CC4)sc3c2)ccc1F | 2.04 | > 10 | – |
| O=C(Cc1cccc(OC(F)(F)F)c1)Nc1cc(NC(=O)c2ccc3nc(NC(=O)C4CC4)sc3c2)ccc1F | 3.13 | > 10 | – |
| O=C(Cc1cccc(OC(F)(F)F)c1)Nc1cc(Sc2ccc3nc(NC(=O)C4CC4)sc3c2)ccc1F | 1.56 | > 10 | – |
| O=C(Cc1cccc(OC(F)(F)F)c1)Nc1cc(-c2cccc3nc(NC(=O)C4CC4)sc23)ccc1F | > 20 | > 10 | – |
| O=C(Cc1cccc(OC(F)(F)F)c1)Nc1cc(Cc2ccc3nc(NC(=O)C4CC4)sc3c2)ccc1F | 0.31 | > 10 | – |
| O=C(Cc1cccc(OC(F)(F)F)c1)Nc1cc(-c2cccc3sc(NC(=O)C4CC4)nc23)ccc1F | > 20 | > 10 | – |
| O=C(Cc1cccc(OC(F)(F)F)c1)Nc1cc(-c2ccc3sc(NC(=O)C4CC4)nc3c2)ccc1F | > 20 | > 10 | – |
| O=C(Cc1cccc(OC(F)(F)F)c1)Nc1cc(COc2ccc3nc(NC(=O)C4CC4)sc3c2)ccc1F | 0.9 | > 10 | – |
| O=C(Cc1cccc(OC(F)(F)F)c1)Nc1c(F)cccc1-c1ccc2nc(NC(=O)C3CC3)sc2c1 | > 20 | > 10 | – |
| O=C(Cc1cccc(C(F)(F)F)c1)Nc1cc(Oc2cc3sc(NC(=O)C4CC4)nc3cc2F)ccc1F | – | – | EC50 [22]: 0.008 µM |
| O=C(Nc1cccc(C(F)(F)F)c1)Nc1cc(Oc2ccc3nc(NC(=O)C4CC4)sc3c2)ccc1F | – | – | Activity [15]: Active |
| O=C(Cc1cccc(OC(F)(F)F)c1)Nc1cc(Nc2ccc3nc(NC(=O)C4CC4)sc3c2)ccc1F | 1.24 | > 10 | – |
